# Starred links: 1 amine or outer side, 2 acyl side, 3 side chain; linkers in the order of their positions; H or OH if unused. Non-standard residues stand in square brackets, D forms with d. Residues, ends and D or L forms follow the SMILES beside them. Ahppa(3S,4S) = O=C(C[C@H](O)[C@H](Cc1ccccc1)N[*:1])[*:2]; dNMeF = CN[C@H](Cc1ccccc1)C(=O)O; NMeQ = CN[C@@H](CCC(N)=O)C(=O)O; Lac = C[C@H](O)C(=O)O
# Target: BACE1 (Homo sapiens, UniProt P56817)
# Assay: Antiproteolytic activity assay against BACE1
# Format: biochemical
# Conditions: fold less potent against BACE1 than against cathepsins D and E
# Sequence of BACE1 (P56817 46-501): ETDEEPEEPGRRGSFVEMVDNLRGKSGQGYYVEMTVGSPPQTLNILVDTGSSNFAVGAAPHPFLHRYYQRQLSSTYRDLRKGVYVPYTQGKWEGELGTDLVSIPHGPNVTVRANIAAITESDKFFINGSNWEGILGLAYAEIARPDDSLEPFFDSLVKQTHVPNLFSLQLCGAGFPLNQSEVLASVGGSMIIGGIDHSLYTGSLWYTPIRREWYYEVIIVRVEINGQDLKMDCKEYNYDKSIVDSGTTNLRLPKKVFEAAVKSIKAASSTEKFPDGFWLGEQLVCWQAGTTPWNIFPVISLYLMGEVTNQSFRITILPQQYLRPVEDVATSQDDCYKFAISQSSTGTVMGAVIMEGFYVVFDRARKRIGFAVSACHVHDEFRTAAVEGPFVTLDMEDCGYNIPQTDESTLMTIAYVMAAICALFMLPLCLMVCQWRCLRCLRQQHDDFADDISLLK
smiles,measurement,value
"CC[C@H](C)[C@H](NC(=O)C[C@H](O)[C@H](Cc1ccccc1)NC(=O)[C@H](CCC(N)=O)N(C)C(=O)[C@@H](NC(=O)[C@H](C)O)[C@@H](C)CC)C(=O)NCC(=O)N(C)[C@H](Cc1ccccc1)C(=O)N1CCC[C@H]1C(=O)OC [Tasiamide F (1), Tasiamide F] (H-[Lac]I[NMeQ][Ahppa(3S,4S)]IG[dNMeF]P-OMe)",Selectivity ratio IC50 BACE1/CatD–E,12–30
